From paper PMC7995636 (Bioorganic & medicinal chemistry, 2021)
One block for each molecule: values may come before it.

Key:
P-glycoprotein (Pgp) = conditions: cited from earlier work
[1] = tested on: breast cancer resistance protein (BCRP1); conditions: cited from earlier work
[2] = higher in brain; cited from earlier work
Bovine brain tubulin = Bovine brain tubulin (Bos taurus, UniProt Q6B856); test: Inhibition of tubulin assembly; assay type: biochemical
PDGFR-β = PDGFR-β (Homo sapiens, UniProt P09619); test: Phosphotyrosine ELISA, PDGFR-β kinase inhibition; assay type: cell-based; conditions: compared to 1
HeLa cells = test: SRB assay, HeLa; assay type: cell-based; conditions: Homo sapiens, read-out: IC50 ± SD in HeLa
HeLa WT-βIII cells = test: SRB assay, HeLa WT-βIII; assay type: cell-based; conditions: Homo sapiens, read-out: IC50 ± SD in WT βIII

Bovine brain tubulin, sequence (Q6B856 whole entry): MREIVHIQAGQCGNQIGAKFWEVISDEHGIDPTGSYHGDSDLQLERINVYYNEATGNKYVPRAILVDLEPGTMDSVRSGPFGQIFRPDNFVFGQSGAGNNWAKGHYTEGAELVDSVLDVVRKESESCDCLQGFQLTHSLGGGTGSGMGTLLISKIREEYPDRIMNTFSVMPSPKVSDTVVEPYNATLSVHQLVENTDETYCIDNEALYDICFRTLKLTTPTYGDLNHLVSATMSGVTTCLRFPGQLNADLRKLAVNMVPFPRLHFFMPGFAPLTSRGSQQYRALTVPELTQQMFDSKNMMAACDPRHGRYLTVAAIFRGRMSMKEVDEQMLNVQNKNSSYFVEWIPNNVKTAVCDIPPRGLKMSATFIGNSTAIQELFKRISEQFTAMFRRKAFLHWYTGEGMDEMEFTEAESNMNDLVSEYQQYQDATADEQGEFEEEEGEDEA
Bovine brain tubulin, sequence (P81947 whole entry partner): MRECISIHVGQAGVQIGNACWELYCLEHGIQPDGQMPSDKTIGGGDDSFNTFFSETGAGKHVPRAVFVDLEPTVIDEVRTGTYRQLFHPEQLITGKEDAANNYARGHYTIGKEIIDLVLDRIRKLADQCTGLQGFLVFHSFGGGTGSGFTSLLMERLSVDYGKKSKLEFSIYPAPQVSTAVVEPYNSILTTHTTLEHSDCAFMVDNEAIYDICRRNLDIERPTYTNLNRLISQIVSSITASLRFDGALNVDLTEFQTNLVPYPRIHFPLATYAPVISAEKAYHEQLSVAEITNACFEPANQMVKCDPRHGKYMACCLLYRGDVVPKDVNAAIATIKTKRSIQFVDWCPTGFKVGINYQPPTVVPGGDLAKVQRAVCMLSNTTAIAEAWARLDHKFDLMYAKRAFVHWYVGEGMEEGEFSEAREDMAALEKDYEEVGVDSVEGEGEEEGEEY
PDGFR-β, sequence (P09619 33-1106): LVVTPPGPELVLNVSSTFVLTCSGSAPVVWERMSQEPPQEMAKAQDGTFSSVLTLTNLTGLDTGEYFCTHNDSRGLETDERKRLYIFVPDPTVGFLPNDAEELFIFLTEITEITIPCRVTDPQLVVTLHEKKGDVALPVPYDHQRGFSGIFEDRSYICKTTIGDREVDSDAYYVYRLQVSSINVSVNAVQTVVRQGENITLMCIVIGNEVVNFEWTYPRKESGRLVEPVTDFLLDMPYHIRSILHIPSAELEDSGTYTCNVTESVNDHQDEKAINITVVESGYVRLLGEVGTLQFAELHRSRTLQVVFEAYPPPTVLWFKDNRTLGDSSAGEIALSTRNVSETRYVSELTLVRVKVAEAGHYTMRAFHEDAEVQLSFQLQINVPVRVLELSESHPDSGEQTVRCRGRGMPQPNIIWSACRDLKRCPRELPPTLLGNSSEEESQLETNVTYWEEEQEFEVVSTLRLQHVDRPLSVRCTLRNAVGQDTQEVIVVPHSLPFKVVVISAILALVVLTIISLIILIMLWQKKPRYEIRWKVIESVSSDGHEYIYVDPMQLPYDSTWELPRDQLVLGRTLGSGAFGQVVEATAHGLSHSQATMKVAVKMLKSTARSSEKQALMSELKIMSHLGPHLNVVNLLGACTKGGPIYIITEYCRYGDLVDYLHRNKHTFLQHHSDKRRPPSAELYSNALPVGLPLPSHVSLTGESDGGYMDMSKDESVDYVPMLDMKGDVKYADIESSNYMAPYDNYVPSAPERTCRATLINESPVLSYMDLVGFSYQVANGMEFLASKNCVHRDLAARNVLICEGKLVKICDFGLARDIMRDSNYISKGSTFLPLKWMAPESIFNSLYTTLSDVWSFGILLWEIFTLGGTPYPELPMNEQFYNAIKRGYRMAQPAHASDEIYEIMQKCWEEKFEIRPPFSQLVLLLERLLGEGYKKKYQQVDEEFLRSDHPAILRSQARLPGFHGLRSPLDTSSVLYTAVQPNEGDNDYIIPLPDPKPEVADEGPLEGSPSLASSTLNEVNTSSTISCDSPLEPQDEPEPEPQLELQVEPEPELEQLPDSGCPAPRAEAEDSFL

SMILES: COc1ccc(N(C)c2nc(C)nc3ccccc23)cc1 [Compound 1, N-(4-Methoxyphenyl)-N,2-dimethylquinazolin-4-amine]
- substrate for P-glycoprotein (Pgp) (P-glycoprotein (Pgp)): not a substrate
- substrate for breast cancer resistance protein (BCRP1) [1]: not a substrate
- concentrations in the brain compared to the plasma [2]: 30 fold

SMILES: CSc1ccc(N(C)c2nc(C)nc3ccccc23)cc1 [Compound 3, N,2-Dimethyl-N-(4-(methylthio)phenyl)quinazolin-4-amine]
- IC50 (Bovine brain tubulin): 480 ± 70 nM

SMILES: COc1cccc2cc(N(C)c3nc(C)nc4ccccc34)ccc12 [Compound 4, N-(5-Methoxynaphthalen-2-yl)-N,2-dimethylquinazolin-4-amine]
- fold loss of potency with PDGFR-β (PDGFR-β): ~ 5 fold
- IC50 (Bovine brain tubulin): 640 ± 10 nM

Continued, values first:

- IC50 (Bovine brain tubulin): 470 ± 20 nM
SMILES: COc1ccc(N(C)c2nc(Cl)nc3ccccc23)cc1 [Compound 8, 2-Chloro-N-(4-methoxyphenyl)-N-methylquinazolin-4-amine]

- IC50 (HeLa cells): 2.8 ± 0.4 nM
- IC50 (HeLa WT-βIII cells): 24 ± 0.2 nM
SMILES: CC(=O)O[C@H]1C(=O)[C@@]2(C)[C@H]([C@H](OC(=O)c3ccccc3)[C@]3(O)C[C@H](OC(=O)[C@H](O)[C@@H](NC(=O)c4ccccc4)c4ccccc4)C(C)=C1C3(C)C)[C@]1(OC(C)=O)CO[C@@H]1C[C@@H]2O [Paclitaxel]
